Results as given in paper PMC7616177, “From structure to clinic: Design of a muscarinic M1 receptor agonist with the potential to treat Alzheimer’s disease” (Cell, 2021).

Legend:
CA1 neurons = experiment: In vivo electrophysiological recording of CA1 neurons in anaesthetised rats; design: species or system rat
healthy volunteers = experiment: Clinical EEG/ERP P300 active auditory oddball paradigm; assay type: in vivo; settings: human multiple dosing, high exposure group, day 9
Procedure: Routine EEG was performed for all subjects during screening enrolled in the multiple ascending dose study to avoid enrolling subjects showing clinically significant abnormalities. 19-lead EEG recordings were employed for quantitative (qEEG) analyses. qEEGs were are recorded in resting state with alternating 30 s eyes open and 30 s eyes closed for 5 min first and then about 5 min eyes closed. The P50 protocol employed a series of “click pairs.” The interval between click pairs is at random between 6 to 10 s (Stimuli S1 and S2, 1000 Hz, duration 3 ms, 80 dB sound pressure level [SPL], stimulus onset asynchrony [SOA] = 500 ms, The MMN protocol used twelve different frequencies ranging in 50 Hz steps from 700 to 1250 Hz delivered binaurally via special headphones or earphones. All stimuli were presented with a constant SOA of 300 ms in a pseudo-randomized order assuming a frequency deviation of one train to another of at least 100 Hz with three different lengths/durations of series which occurred evenly. For the P300 active auditory oddball paradigm sinusoidal tones of 90 dB SPL intensity and 50 ms duration were delivered binaurally in an inter-stimulus-interval of 1000 msec. The standard stimulus, a low frequency tone (1000 Hz) appeared with a frequency of 85%. […]

non-human primates = experiment: Safety clinical signs, non-human primates; assay type: in vivo
human M1 receptor = target: T1, human M1 receptor (Homo sapiens, UniProt P11229); experiment: Inositol phosphate (IP1) accumulation in CHO Flp-In cells; assay type: cell-based
T1 construct: expressed in transfected cells
T1 sequence (P11229 1-460): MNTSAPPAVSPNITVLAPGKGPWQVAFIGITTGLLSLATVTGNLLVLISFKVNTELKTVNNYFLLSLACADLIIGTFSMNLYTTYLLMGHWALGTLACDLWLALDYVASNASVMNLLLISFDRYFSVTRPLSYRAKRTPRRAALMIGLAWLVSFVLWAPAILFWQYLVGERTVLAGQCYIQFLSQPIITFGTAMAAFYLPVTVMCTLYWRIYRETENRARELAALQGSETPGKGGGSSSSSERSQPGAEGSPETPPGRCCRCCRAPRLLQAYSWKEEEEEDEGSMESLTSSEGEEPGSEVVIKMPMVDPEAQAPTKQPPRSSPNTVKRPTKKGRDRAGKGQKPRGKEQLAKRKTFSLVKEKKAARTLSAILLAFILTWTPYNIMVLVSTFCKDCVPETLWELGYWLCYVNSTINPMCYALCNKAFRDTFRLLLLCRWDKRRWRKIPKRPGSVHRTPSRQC

SMILES: CCOC(=O)N1CCC[C@H](N2CCC(C(=O)NC3(C)CCC3)CC2)CC1 [HTL9936, ethyl (S)-4-(4-((1-methylcyclobutyl)carbamoyl)piperidin-1-yl)azepane-1-carboxylate]
- In vivo firing rate of CA1 neurons vs vehicle (CA1 neurons; 10 mg/kg i.v., rats): significant increase in the in vivo firing rate of CA1 neurons
- In vivo neuronal firing rate (CA1 neurons; adult rats, 1 and 10 mg/kg, reversed by scopolamine i.v.): concentration-dependent increase in neuronal firing rate
- P300 deviant amplitude at electrodes Fz and Cz (healthy volunteers): significant within- and between-group effects for deviant amplitude
- Cu,pl without cholinergic clinical signs (non-human primates): 991 nM
- Plasma exposure without cholinergic clinical signs (non-human primates): ≤ 557 ng/mL
- EC50 (human M1 receptor): 631 nM
